Assay results from US11840515B2, “Methods for preparing N-(4-fluorobenzyl)-N-(1-methylpiperidin-4-yl)-N′-(4-(2-methylpropyloxy)phenylmethyl)carbamide and its tartrate salt and polymorphic form c” (ACADIA Pharmaceuticals Inc., priority 2015, dated 2023).
Counter-ions that a name gives are not always drawn.

What was measured:
[1] = thermal stability of polymorphic form; assay type: physicochemical
[2] = solubility in water / aqueous systems; assay type: physicochemical
bioavailability = assay type: in vivo; conditions: free base is deliberated at physiological pH ranges
storage stability = assay type: physicochemical

For CC(C)COc1ccc(CNC(=O)N(Cc2ccc(F)cc2)C2CCN(C)CC2)cc1 [Polymorphic Form C], the “thermostability of the polymorphic form” value [1] was “thermostabile”.

With CC(C)COc1ccc(CNC(=O)N(Cc2ccc(F)cc2)C2CCN(C)CC2)cc1 [pimavanserin, N-(4-fluorophenylmethyl)-N-(1-methylpiperidin-4-yl)-N′-(4-(2-methylpropyloxy)phenylmethyl)carbamide] the solubility in water ([2]; water) was “low”.

For CC(C)COc1ccc(CNC(=O)N(Cc2ccc(F)cc2)C2CCN(C)CC2)cc1 [Pimavanserin tartrate], the bioavailability (bioavailability) was “high bioavailability”, the “solubility in aqueous systems” value ([2]; aqueous systems) was “very good” and the storage stability (storage stability) was “high storage stability”.
